Key:
HCoV-229E [1] = experiment: Intracellular (cellular) viral load by RT-qPCR, combined effect of TTFields with remdesivir; format: cell-based, HCoV-229E in human MRC-5 lung fibroblast cells; conditions: for Calculated additive: Remdesivir alone multiplied by TTFields alone
HCoV-229E [2] = experiment: Extracellular viral amount (virions secreted to the media) by RT-qPCR, combined effect of TTFields with remdesivir; format: cell-based, HCoV-229E in human MRC-5 lung fibroblast cells; conditions: 48 hpi

Compound: CCC(CC)COC(=O)[C@H](C)N[P@](=O)(OC[C@H]1O[C@@](C#N)(c2ccc3c(N)ncnn23)[C@H](O)[C@@H]1O)Oc1ccccc1 [remdesivir]
- reduction of cellular viral load (HCoV-229E [1]; 0.023 μM remdesivir alone, MRC-5 infected 3 hr, MOI 0.01, 48 hpi): 65%
- inhibition at 0.011 µM (HCoV-229E [1]; Human coronavirus 229E, MRC5, 0.011 μM remdesivir alone, MRC-5 infected 3 hr, MOI 0.01, 48 hpi): 27%
- Remdesivir alone (viral load remaining relative to control) (HCoV-229E [1]; Remdesivir concentration 0.011): 73%
- Calculated additive (HCoV-229E [1]; Remdesivir concentration 0.011): 42%
- Measured combined (viral load remaining relative to control) (HCoV-229E [1]; Remdesivir concentration 0.011 with TTFields): 46%
- Remdesivir alone (viral load remaining relative to control) (HCoV-229E [1]; Remdesivir concentration 0.023): 35%
- Calculated additive (HCoV-229E [1]; Remdesivir concentration 0.023): 20%
- Measured combined (viral load remaining relative to control) (HCoV-229E [1]; Remdesivir concentration 0.023 with TTFields): 15%
- reduction of viral load (HCoV-229E [1]; high dose (0.023 μM) remdesivir with concomitant 150 kHz TTFields, 48 hpi): 85%
- reduction of viral load (HCoV-229E [1]; low dose (0.011 μM) remdesivir with concomitant 150 kHz TTFields, 48 hpi): 54%
- reduction in number of virions secreted to the media (HCoV-229E [2]; 0.011 μM remdesivir alone): 31%
- reduction in number of virions secreted to the media (HCoV-229E [2]; 0.023 μM remdesivir alone): 75%
- decrease in number of virions secreted to the media (HCoV-229E [2]; high dose (0.023 μM) remdesivir with concomitant 150 kHz TTFields): 88%
- decrease in number of virions secreted to the media (HCoV-229E [2]; low dose (0.011 μM) remdesivir with concomitant 150 kHz TTFields): 68%

Source: patent US20220088403A1, “Methods And Compositions For Treating Coronavirus” (NOVOCURE GMBH, priority 2020, published 2022)
